Earlier results on one compound are cited in PMC7444767 (British Journal of Clinical Pharmacology, 2020).

The structures appear in SMILES notation.

The series has as its system EGFR kinases. The conditions noted are these: cited from earlier work.

Regarding `C=CC(=O)N1CCC[C@@H](n2nc(-c3ccc(Oc4ccccc4)cc3)c3c(N)ncnc32)C1` [ibrutinib, reference compound], the “Inhibition of the EGFR family of kinases” value is listed as “potent irreversible inhibitor”.
